Test results published in ChEMBL document CHEMBL3886634, “Substituted 3-haloallylamine inhibitors of ASSAO and uses thereof” (2016).

What was measured:
[1] = molecular target: T1, Diamine oxidase [copper-containing] (Homo sapiens, UniProt P19801); experiment: DAO Inhibition Assay: Recombinant human DAO (2.4 μg/mL) was used as source of DAO enzyme activities.
T1 sequence (P19801 whole entry): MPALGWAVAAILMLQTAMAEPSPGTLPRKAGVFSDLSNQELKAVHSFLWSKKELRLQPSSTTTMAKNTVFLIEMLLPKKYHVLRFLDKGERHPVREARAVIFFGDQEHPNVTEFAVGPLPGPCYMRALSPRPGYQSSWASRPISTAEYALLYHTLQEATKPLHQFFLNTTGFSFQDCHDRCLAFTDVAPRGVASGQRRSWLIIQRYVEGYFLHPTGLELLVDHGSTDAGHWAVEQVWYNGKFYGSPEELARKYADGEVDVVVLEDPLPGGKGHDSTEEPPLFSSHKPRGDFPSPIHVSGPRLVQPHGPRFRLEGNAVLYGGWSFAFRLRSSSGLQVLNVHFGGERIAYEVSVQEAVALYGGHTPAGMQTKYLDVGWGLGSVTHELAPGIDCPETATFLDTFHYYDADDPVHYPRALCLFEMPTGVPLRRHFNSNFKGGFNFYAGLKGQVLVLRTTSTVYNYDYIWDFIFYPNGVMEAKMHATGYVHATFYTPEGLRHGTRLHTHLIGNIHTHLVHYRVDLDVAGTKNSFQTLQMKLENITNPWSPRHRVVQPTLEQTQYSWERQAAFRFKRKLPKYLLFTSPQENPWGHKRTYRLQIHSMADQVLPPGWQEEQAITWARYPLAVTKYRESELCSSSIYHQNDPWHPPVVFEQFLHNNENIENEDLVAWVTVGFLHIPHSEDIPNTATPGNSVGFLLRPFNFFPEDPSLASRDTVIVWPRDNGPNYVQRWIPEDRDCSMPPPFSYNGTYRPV

[2] = molecular target: T2, Amine oxidase [flavin-containing] B (Homo sapiens, UniProt P27338)
T2 sequence (P27338 whole entry): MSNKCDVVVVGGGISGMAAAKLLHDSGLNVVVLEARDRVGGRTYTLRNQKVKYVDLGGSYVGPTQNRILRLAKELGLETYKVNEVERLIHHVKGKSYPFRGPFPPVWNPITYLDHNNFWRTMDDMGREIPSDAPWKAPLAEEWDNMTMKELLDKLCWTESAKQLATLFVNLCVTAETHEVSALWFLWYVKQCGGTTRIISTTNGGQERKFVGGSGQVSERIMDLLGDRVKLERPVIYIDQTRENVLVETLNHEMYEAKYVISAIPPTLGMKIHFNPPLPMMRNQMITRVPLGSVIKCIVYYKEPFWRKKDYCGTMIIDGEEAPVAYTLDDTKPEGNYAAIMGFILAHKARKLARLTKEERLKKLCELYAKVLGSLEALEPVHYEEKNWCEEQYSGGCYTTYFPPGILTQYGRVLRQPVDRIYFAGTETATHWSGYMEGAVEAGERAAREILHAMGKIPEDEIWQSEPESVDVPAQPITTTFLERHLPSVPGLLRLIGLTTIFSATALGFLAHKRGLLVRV

## NC/C(=C/F)CCc1ccc(F)cc1 [MOFEGILINE]
[1]
  IC50: > 10000 nM
[2]
  IC50: 5 nM
